Assay results as given in ChEMBL document CHEMBL5131490, “5-Substituted 3, 3', 4', 7-tetramethoxyflavonoids - A novel class of potent DNA triplex specific binding ligands” (Bioorg Med Chem Lett, 2022).
Calls of active or inactive are those of the source. No cut-off for these calls is given here.

How the values were obtained:
[1] = Stabilization of [poly(dA).poly(dT)] triplex DNA (unknown origin) assessed as change in melting temperature at 10 uM by UV based assay
[2] = Binding affinity to triplex DNA1 containing 15 nucleotide-long triplex-forming region (unknown origin) assessed as change in melting temperature at 10 uM by UV based assay
[3] = Stabilization of [poly(dA).2poly(dT) triplex DNA (unknown origin) assessed as melting temperature at 20 uM by Thermal denaturation assay
[4] = Stabilization of [poly(dA).2poly(dT) triplex DNA (unknown origin) assessed as increase in melting temperature at 1 uM by Thermal denaturation assay
[5] = Stabilization of [poly(dA).2poly(dT) triplex DNA (unknown origin) assessed as deltaH level temperature at 10 uM by DSC assay (reference value: 5.19 KJ/mol)
[6] = Stabilization of [poly(dA).2poly(dT) triplex DNA (unknown origin) assessed as deltaS level temperature at 10 uM by DSC assay (reference value: 0.0167 mol.K)
[7] = Stabilization of [poly(dA).2poly(dT) triplex DNA (unknown origin) assessed as melting temperature at 10 uM by DSC assay (reference value: 36.8 degC)
[8] = Stabilization of [poly(dA).2poly(dT) triplex DNA (unknown origin) assessed as effect on CD spectrum up to 25 uM by CD spectroscopy
[9] = Binding affinity to triplex DNA1 containing 15 nucleotide-long triplex-forming region (unknown origin) at 100 uM by ITC

ΔTm [1] [°C] | ΔTm [2] [°C] | Tm [3] [°C] | ΔTm [4] [°C] | deltaH [5] [kcal/mol] | deltaS [6] | Tm [7] [°C] | Activity [8] | Ka [9] [M⁻¹] | SMILES
2.4 | 5.6 |  |  |  |  |  |  |  | CCCCCN(CCCCC)CCCCOc1cc(OC)cc2oc(-c3ccc(OC)c(OC)c3)c(OC)c(=O)c12
16.4 | 13.6 | 24 | 6 |  |  |  |  |  | COc1cc(OCCCCN2CCCCC2)c2c(=O)c(OC)c(-c3ccc(OC)c(OC)c3)oc2c1
3.3 | 5.6 |  |  |  |  |  |  |  | CCCCN(CCCC)CCCCOc1cc(OC)cc2oc(-c3ccc(OC)c(OC)c3)c(OC)c(=O)c12
14.5 | 11.2 |  |  |  |  |  |  |  | CCN(CC)CCCCOc1cc(OC)cc2oc(-c3ccc(OC)c(OC)c3)c(OC)c(=O)c12
2.5 | 3.2 |  |  | 1.24 | 0.0167 KJ/(mol.K) | 38.5 | Active |  | COc1cc(O)c2c(=O)c(OC)c(-c3ccc(OC)c(OC)c3)oc2c1
17.4 | 12.6 |  |  | 2.08 | 0.0271 KJ/(mol.K) | 48.9 | Active | 310000 | COc1cc(OCCCCN2CCCC2)c2c(=O)c(OC)c(-c3ccc(OC)c(OC)c3)oc2c1
 |  | 24 |  |  |  |  |  | 160000 | NC[C@@H]1O[C@H](O[C@H]2[C@@H](O)[C@H](O[C@@H]3[C@@H](O)[C@H](N)C[C@H](N)[C@H]3O[C@H]3O[C@H](CN)[C@@H](O)[C@H](O)[C@H]3N)O[C@@H]2CO)[C@H](N)[C@@H](O)[C@@H]1O
10.3 | 11.2 |  |  |  |  |  |  |  | CCCN(CCC)CCCCOc1cc(OC)cc2oc(-c3ccc(OC)c(OC)c3)c(OC)c(=O)c12
12.3 | 5.6 |  |  |  |  |  |  |  | COc1cc(OCCCCN2CCN(C)CC2)c2c(=O)c(OC)c(-c3ccc(OC)c(OC)c3)oc2c1
